# Assay results from ChEMBL document CHEMBL6087462, “Cuminaldehyde Potentiates Antiproteolytic Peptide Efficacy via Parallel Pathways of Enhanced Inner Membrane-Damaging Activity and Inhibition of Bacterial Energy Metabolism” (J Med Chem, 2025).
# What was measured:
# [1] = test system: Escherichia coli; assay: Synergistic antimicrobial activity against Escherichia coli 25922 assessed as fractional inhibitory concentration index in presence of carvacrol by checkerboard broth microdilution assay; type: functional
# [2] = test system: Escherichia coli; assay: Antimicrobial activity against Escherichia coli UB 1005 assessed as reduction in microbial growth in presence of cuminaldehyde by CLSI based broth microdilution method; type: functional
# [3] = test system: Staphylococcus aureus; assay: Synergistic antimicrobial activity against Staphylococcus aureus 25923 assessed as fractional inhibitory concentration index in presence of citronellal by checkerboard broth microdilution assay; type: functional
# [4] = test system: Salmonella typhimurium; assay: Antimicrobial activity against Salmonella typhimurium ATCC 7731 assessed as cuminaldehyde MIC by CLSI based broth microdilution method; type: functional, Salmonella enterica subsp. enterica serovar Typhimurium; conditions: Salmonella enterica
# [5] = test system: Staphylococcus aureus; assay: Synergistic antimicrobial activity against Staphylococcus aureus 43300 assessed as fractional inhibitory concentration index in presence of perillaldehyde by checkerboard broth microdilution assay; type: functional
# [6] = test system: Staphylococcus epidermidis; assay: Antimicrobial activity against Staphylococcus epidermidis ATCC 12228 assessed as cuminaldehyde MIC by CLSI based broth microdilution method; type: functional
# [7] = test system: Staphylococcus aureus; assay: Antimicrobial activity against Staphylococcus aureus ATCC 29213 assessed as cuminaldehyde MIC by CLSI based broth microdilution method; type: functional
# [8] = test system: Staphylococcus epidermidis; assay: Synergistic antimicrobial activity against Staphylococcus epidermidis 12228 assessed as fractional inhibitory concentration index in presence of citral by checkerboard broth microdilution assay; type: functional
# [9] = Synergistic antimicrobial activity against Salmonella enterica subsp. enterica serovar Pullorum 7913 assessed as fractional inhibitory concentration index in presence of thymol by checkerboard broth microdilution assay; type: functional
# [10] = test system: Escherichia coli; assay: Synergistic antimicrobial activity against Escherichia coli K88 assessed as fractional inhibitory concentration by checkerboard broth microdilution assay; type: functional
# [11] = test system: Escherichia coli; assay: Synergistic antimicrobial activity against Escherichia coli UB 1005 assessed as fractional inhibitory concentration by checkerboard broth microdilution assay; type: functional
# [12] = test system: Staphylococcus aureus; assay: Synergistic antimicrobial activity against Staphylococcus aureus 43300 assessed as fractional inhibitory concentration by checkerboard broth microdilution assay; type: functional
# [13] = test system: Pseudomonas aeruginosa; assay: Synergistic antimicrobial activity against Pseudomonas aeruginosa ATCC 27853 assessed as fractional inhibitory concentration by checkerboard broth microdilution assay; type: functional
# [14] = test system: Escherichia coli; assay: Antimicrobial activity against Escherichia coli 078 assessed as reduction in microbial growth in presence of cuminaldehyde by CLSI based broth microdilution method; type: functional; conditions: 78
# [15] = test system: Escherichia coli; assay: Synergistic antimicrobial activity against Escherichia coli 25922 assessed as fractional inhibitory concentration index by checkerboard broth microdilution assay; type: functional
# [16] = test system: Enterococcus faecalis; assay: Synergistic antimicrobial activity against Enterococcus faecalis 29212 assessed as fractional inhibitory concentration index in presence of citronellal by checkerboard broth microdilution assay; type: functional
# [17] = test system: Staphylococcus aureus; assay: Antimicrobial activity against Staphylococcus aureus 43300 assessed as reduction in microbial growth in presence of cuminaldehyde by CLSI based broth microdilution method; type: functional
# [18] = test system: Staphylococcus aureus; assay: Synergistic antimicrobial activity against Staphylococcus aureus 25923 assessed as fractional inhibitory concentration index in presence of perillaldehyde by checkerboard broth microdilution assay; type: functional
# [19] = test system: Salmonella typhimurium; assay: Synergistic antimicrobial activity against Salmonella typhimurium 7731 assessed as fractional inhibitory concentration index in presence of carvacrol by checkerboard broth microdilution assay; type: functional, Salmonella enterica subsp. enterica serovar Typhimurium
# [20] = test system: Escherichia coli; assay: Synergistic antimicrobial activity against Escherichia coli 078 assessed as fractional inhibitory concentration index in presence of thymol by checkerboard broth microdilution assay; type: functional, 78
# [21] = test system: Staphylococcus aureus; assay: Antimicrobial activity against Staphylococcus aureus ATCC 25923 assessed as reduction in microbial growth in presence of cuminaldehyde by CLSI based broth microdilution method; type: functional
# [22] = Synergistic antimicrobial activity against Salmonella enterica subsp. enterica serovar Pullorum ATCC 7913 assessed as fractional inhibitory concentration by checkerboard broth microdilution assay; type: functional
# [23] = test system: Enterococcus faecalis; assay: Synergistic antimicrobial activity against Enterococcus faecalis 29212 assessed as fractional inhibitory concentration index in presence of perillaldehyde by checkerboard broth microdilution assay; type: functional
# [24] = test system: Escherichia coli; assay: Synergistic antimicrobial activity against Escherichia coli UB1005 assessed as fractional inhibitory concentration index in presence of citral by checkerboard broth microdilution assay; type: functional
# [25] = Antimicrobial activity against Salmonella enterica subsp. enterica serovar Pullorum ATCC 7913 assessed as reduction in microbial growth by CLSI based broth microdilution method; type: functional
# [26] = test system: Staphylococcus aureus; assay: Antimicrobial activity against Staphylococcus aureus ATCC 29213 assessed as reduction in microbial growth in presence of cuminaldehyde by CLSI based broth microdilution method; type: functional
# [27] = test system: Escherichia coli; assay: Synergistic antimicrobial activity against Escherichia coli UB1005 assessed as fractional inhibitory concentration index in presence of thymol by checkerboard broth microdilution assay; type: functional
# [28] = test system: Salmonella typhimurium; assay: Synergistic antimicrobial activity against Salmonella typhimurium 7731 assessed as fractional inhibitory concentration index in presence of cuminaldehyde by checkerboard broth microdilution assay; type: functional, Salmonella enterica subsp. enterica serovar Typhimurium
# [29] = test system: Staphylococcus aureus; assay: Synergistic antimicrobial activity against Staphylococcus aureus 25923 assessed as fractional inhibitory concentration index in presence of thymol by checkerboard broth microdilution assay; type: functional
# [30] = test system: Staphylococcus epidermidis; assay: Synergistic antimicrobial activity against Staphylococcus epidermidis 12228 assessed as fractional inhibitory concentration index in presence of carvacrol by checkerboard broth microdilution assay; type: functional
# [31] = test system: Escherichia coli; assay: Synergistic antimicrobial activity against Escherichia coli K99 assessed as fractional inhibitory concentration index in presence of cuminaldehyde by checkerboard broth microdilution assay; type: functional
# [32] = test system: Escherichia coli; assay: Synergistic antimicrobial activity against Escherichia coli UB1005 assessed as fractional inhibitory concentration index in presence of carvacrol by checkerboard broth microdilution assay; type: functional
# [33] = test system: Escherichia coli; assay: Synergistic antimicrobial activity against Escherichia coli 25922 assessed as fractional inhibitory concentration index in presence of perillaldehyde by checkerboard broth microdilution assay; type: functional
# [34] = test system: Enterococcus faecalis; assay: Synergistic antimicrobial activity against Enterococcus faecalis 29212 assessed as fractional inhibitory concentration index in presence of carvacrol by checkerboard broth microdilution assay; type: functional
# [35] = test system: Escherichia coli; assay: Drug resistance, ratio of MIC for Escherichia coli ATCC 25922 after 30 passages to MIC for Escherichia coli ATCC 25922 […] after initial exposure; type: functional
# [36] = test system: Staphylococcus aureus; assay: Synergistic antimicrobial activity against Staphylococcus aureus 43300 assessed as fractional inhibitory concentration index in presence of cuminaldehyde by checkerboard broth microdilution assay; type: functional
# [37] = test system: Staphylococcus aureus; assay: Antimicrobial activity against Staphylococcus aureus ATCC 25923 assessed as cuminaldehyde MIC by CLSI based broth microdilution method; type: functional
# [38] = test system: Salmonella typhimurium; assay: Synergistic antimicrobial activity against Salmonella typhimurium 14028 assessed as fractional inhibitory concentration index in presence of carvacrol by checkerboard broth microdilution assay; type: functional, Salmonella enterica subsp. enterica serovar Typhimurium
# [39] = test system: Pseudomonas aeruginosa; assay: Synergistic antimicrobial activity against Pseudomonas aeruginosa 27853 assessed as fractional inhibitory concentration index in presence of thymol by checkerboard broth microdilution assay; type: functional
# [40] = test system: Staphylococcus aureus; assay: Synergistic antimicrobial activity against Staphylococcus aureus ATCC 29213 assessed as fractional inhibitory concentration by checkerboard broth microdilution assay; type: functional
# [41] = test system: Salmonella typhimurium; assay: Antimicrobial activity against Salmonella typhimurium ATCC 14028 assessed as reduction in microbial growth in presence of cuminaldehyde by CLSI based broth microdilution method; type: functional, Salmonella enterica subsp. enterica serovar Typhimurium; conditions: Salmonella enterica
# [42] = test system: Escherichia coli; assay: Synergistic antimicrobial activity against Escherichia coli 078 assessed as fractional inhibitory concentration index in presence of perillaldehyde by checkerboard broth microdilution assay; type: functional, 78
# [43] = test system: Staphylococcus epidermidis; assay: Synergistic antimicrobial activity against Staphylococcus epidermidis 12228 assessed as fractional inhibitory concentration index in presence of perillaldehyde by checkerboard broth microdilution assay; type: functional
structure (smiles),measurement,setting,value
CC[C@H](C)[C@H](NC(=O)[C@@H](NC(=O)[C@@H](CCCNC(=N)N)NC(=O)[C@H](C)NC(=O)[C@H](C)NC(=O)[C@@H](N)Cc1cccc2ccccc12)[C@@H](C)CC)C(=O)N[C@@H](CC(C)C)C(=O)N[C@H](CCCNC(=N)N)C(=O)N[C@@H](Cc1c[nH]c2ccccc12)C(=O)N[C@H](CCCNC(=N)N)C(=O)N[C@@H](Cc1ccccc1)C(=O)N[C@@H](CCCNC(=N)N)C(=O)O,fractional inhibitory concentration index (FICI),[1],0.5
same,MIC,[2],0.5 µg/mL
same,fractional inhibitory concentration index (FICI),[3],0.25
same,MIC,[4],1020 µg/mL
same,fractional inhibitory concentration index (FICI),[5],0.75
same,MIC,[6],256 µg/mL
same,MIC,[7],512 µg/mL
same,fractional inhibitory concentration index (FICI),[8],0.5
same,fractional inhibitory concentration index (FICI),[9],0.75
same,FIC,[10],0.063
same,FIC,[11],0.125
same,FIC,[12],0.25
same,FIC,[13],0.125
same,MIC,[14],2 µg/mL
same,fractional inhibitory concentration index (FICI),[15],0.25
same,fractional inhibitory concentration index (FICI),[16],0.375
same,MIC,[17],4 µg/mL
same,fractional inhibitory concentration index (FICI),[18],0.625
same,fractional inhibitory concentration index (FICI),[19],0.5
same,fractional inhibitory concentration index (FICI),[20],0.5
same,MIC,[21],8 µg/mL
same,FIC,[22],0.125
same,fractional inhibitory concentration index (FICI),[23],0.625
same,fractional inhibitory concentration index (FICI),[24],0.257
same,MIC,[25],16 µg/mL
same,MIC,[26],2 µg/mL
same,fractional inhibitory concentration index (FICI),[27],0.25
same,fractional inhibitory concentration index (FICI),[28],0.125
same,fractional inhibitory concentration index (FICI),[29],0.25
same,fractional inhibitory concentration index (FICI),[30],1
same,fractional inhibitory concentration index (FICI),[31],0.375
same,fractional inhibitory concentration index (FICI),[32],0.313
same,fractional inhibitory concentration index (FICI),[33],0.156
same,fractional inhibitory concentration index (FICI),[34],0.375
same,Ratio,[35],2
same,fractional inhibitory concentration index (FICI),[36],0.375
same,MIC,[37],256 µg/mL
same,fractional inhibitory concentration index (FICI),[38],0.5
same,fractional inhibitory concentration index (FICI),[39],0.25
same,FIC,[40],0.25
same,MIC,[41],0.5 µg/mL
same,fractional inhibitory concentration index (FICI),[42],0.188
same,fractional inhibitory concentration index (FICI),[43],0.375
